Assay results: ChEMBL document CHEMBL4507276 (2021); call rule not given here

What was measured:
[1] = biological target: Macrophage colony-stimulating factor 1 receptor (Homo sapiens) (UniProt P07333); settings: Compound concentration 1000.0 nM
[2] = biological target: Insulin receptor (Homo sapiens) (UniProt P06213); assay: IRK(INSR)_CE Cerep selectivity data (BI); settings: Compound concentration 20.0 uM
[3] = biological target: 3',5'-cyclic-AMP phosphodiesterase 4D (Homo sapiens) (UniProt Q08499); assay: PDE4D2 Cerep selectivity data (BI); settings: Compound concentration 20.0 uM
[4] = biological target: xanthine dehydrogenase/oxidase (Bos taurus, UniProt P80457); assay: SUPOXXANOXID Cerep selectivity data (BI); parameters: mode of action inhibitor; settings: cattle, xanthine oxidase enzyme assay; compound concentration 20 uM; read-out: % Ctrl
[5] = biological target: D(3) dopamine receptor (Homo sapiens) (UniProt P35462); assay: D3/HU Eurofins-Panlabs selectivity data (BI); settings: Compound concentration 10.0 uM
[6] = biological target: T1, D(4) dopamine receptor (Homo sapiens) (UniProt P21917); assay: D4.2/H Eurofins-Panlabs selectivity data (BI); settings: Compound concentration 10.0 uM
T1 sequence (whole entry): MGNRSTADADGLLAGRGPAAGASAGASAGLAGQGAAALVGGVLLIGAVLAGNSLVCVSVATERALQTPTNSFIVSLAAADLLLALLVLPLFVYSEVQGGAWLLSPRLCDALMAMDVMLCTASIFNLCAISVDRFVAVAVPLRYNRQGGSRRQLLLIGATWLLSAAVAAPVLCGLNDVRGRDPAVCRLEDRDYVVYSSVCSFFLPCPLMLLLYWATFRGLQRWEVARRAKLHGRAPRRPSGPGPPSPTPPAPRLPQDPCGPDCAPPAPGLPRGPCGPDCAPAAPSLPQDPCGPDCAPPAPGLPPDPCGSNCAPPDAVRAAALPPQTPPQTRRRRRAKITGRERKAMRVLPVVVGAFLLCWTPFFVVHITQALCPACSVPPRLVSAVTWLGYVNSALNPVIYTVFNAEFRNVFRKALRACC

[7] = biological target: T2, Tyrosine-protein kinase ITK/TSK (Homo sapiens) (UniProt Q08881); assay: ITK Invitrogen selectivity data (BI); settings: Compound concentration 3.0 uM
T2 sequence (whole entry): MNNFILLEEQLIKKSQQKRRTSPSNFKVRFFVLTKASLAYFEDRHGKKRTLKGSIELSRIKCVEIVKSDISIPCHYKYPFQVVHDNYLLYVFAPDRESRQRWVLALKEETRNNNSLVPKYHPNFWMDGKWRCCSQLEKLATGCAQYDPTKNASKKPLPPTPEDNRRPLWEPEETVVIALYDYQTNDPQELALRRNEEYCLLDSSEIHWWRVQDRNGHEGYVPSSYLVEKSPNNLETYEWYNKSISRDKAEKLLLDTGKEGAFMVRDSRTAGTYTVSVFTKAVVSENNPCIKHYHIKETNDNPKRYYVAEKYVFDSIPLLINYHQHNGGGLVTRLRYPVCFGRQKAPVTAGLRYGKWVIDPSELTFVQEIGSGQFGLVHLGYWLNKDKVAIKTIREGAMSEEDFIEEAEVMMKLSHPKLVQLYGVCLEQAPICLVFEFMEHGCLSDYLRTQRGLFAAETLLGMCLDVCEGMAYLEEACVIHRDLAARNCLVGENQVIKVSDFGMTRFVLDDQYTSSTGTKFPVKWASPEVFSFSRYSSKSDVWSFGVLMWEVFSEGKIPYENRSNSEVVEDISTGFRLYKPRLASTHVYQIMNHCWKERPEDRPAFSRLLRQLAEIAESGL

[8] = test system: Leucine-rich repeat serine/threonine-protein kinase 2 (Homo sapiens), Q5S007 [G2019S]; assay: LRRK2_G2019S Invitrogen selectivity data (BI); settings: Compound concentration 3.0 uM
[9] = biological target: Phosphatidylinositol 4-kinase beta (Homo sapiens) (UniProt Q9UBF8); assay: PI4KB Invitrogen selectivity data (BI); settings: Compound concentration 3.0 uM
[10] = biological target: T3, Dual specificity protein kinase TTK (Homo sapiens) (UniProt P33981); assay: TTK Invitrogen selectivity data (BI); settings: Compound concentration 3.0 uM
T3 sequence (whole entry): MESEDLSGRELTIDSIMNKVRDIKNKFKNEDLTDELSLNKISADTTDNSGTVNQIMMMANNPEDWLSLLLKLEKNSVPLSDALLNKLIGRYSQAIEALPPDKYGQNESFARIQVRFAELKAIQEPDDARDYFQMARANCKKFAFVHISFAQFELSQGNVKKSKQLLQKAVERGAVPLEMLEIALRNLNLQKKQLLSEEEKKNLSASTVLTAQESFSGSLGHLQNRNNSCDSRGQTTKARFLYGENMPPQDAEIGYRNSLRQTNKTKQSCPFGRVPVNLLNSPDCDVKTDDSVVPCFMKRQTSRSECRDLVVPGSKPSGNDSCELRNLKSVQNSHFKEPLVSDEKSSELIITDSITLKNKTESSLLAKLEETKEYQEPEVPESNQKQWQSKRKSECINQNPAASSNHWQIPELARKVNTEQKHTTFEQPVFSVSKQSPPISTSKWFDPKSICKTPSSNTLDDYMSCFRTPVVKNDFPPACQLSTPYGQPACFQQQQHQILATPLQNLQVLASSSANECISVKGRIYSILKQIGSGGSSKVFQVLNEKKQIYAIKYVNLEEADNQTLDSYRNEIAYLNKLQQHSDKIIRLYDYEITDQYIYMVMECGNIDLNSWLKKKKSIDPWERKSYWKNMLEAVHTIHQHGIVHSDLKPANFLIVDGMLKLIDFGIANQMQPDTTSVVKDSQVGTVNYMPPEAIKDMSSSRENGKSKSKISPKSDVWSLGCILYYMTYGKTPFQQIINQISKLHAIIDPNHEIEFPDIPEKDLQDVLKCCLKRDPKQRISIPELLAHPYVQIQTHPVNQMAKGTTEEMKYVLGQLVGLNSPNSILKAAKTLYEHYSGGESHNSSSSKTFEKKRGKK

Chain of 3',5'-cyclic-AMP phosphodiesterase 4D (Homo sapiens) (Q08499 whole entry): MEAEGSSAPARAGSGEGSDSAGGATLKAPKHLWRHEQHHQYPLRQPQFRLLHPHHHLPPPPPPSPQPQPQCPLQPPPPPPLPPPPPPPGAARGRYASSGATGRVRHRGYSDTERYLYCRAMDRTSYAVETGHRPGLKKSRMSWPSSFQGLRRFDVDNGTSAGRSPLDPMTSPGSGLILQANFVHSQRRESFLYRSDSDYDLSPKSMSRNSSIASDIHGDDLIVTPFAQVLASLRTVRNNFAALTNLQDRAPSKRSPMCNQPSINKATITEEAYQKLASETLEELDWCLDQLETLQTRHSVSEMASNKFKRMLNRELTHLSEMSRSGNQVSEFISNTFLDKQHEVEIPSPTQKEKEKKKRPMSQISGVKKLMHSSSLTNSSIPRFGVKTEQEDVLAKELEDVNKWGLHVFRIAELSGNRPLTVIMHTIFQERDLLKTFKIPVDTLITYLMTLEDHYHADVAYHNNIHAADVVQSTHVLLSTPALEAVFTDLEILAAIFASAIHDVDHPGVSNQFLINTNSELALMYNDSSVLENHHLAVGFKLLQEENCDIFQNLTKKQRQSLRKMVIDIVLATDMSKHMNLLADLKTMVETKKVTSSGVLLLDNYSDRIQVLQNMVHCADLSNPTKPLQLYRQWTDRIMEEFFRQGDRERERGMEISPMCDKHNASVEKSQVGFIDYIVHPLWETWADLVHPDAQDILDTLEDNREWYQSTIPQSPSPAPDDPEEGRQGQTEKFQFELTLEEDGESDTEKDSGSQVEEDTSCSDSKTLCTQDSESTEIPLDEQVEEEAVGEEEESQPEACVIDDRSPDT
Chain of Leucine-rich repeat serine/threonine-protein kinase 2 (Homo sapiens), Q5S007 [G2019S] (Q5S007 whole entry G2019S): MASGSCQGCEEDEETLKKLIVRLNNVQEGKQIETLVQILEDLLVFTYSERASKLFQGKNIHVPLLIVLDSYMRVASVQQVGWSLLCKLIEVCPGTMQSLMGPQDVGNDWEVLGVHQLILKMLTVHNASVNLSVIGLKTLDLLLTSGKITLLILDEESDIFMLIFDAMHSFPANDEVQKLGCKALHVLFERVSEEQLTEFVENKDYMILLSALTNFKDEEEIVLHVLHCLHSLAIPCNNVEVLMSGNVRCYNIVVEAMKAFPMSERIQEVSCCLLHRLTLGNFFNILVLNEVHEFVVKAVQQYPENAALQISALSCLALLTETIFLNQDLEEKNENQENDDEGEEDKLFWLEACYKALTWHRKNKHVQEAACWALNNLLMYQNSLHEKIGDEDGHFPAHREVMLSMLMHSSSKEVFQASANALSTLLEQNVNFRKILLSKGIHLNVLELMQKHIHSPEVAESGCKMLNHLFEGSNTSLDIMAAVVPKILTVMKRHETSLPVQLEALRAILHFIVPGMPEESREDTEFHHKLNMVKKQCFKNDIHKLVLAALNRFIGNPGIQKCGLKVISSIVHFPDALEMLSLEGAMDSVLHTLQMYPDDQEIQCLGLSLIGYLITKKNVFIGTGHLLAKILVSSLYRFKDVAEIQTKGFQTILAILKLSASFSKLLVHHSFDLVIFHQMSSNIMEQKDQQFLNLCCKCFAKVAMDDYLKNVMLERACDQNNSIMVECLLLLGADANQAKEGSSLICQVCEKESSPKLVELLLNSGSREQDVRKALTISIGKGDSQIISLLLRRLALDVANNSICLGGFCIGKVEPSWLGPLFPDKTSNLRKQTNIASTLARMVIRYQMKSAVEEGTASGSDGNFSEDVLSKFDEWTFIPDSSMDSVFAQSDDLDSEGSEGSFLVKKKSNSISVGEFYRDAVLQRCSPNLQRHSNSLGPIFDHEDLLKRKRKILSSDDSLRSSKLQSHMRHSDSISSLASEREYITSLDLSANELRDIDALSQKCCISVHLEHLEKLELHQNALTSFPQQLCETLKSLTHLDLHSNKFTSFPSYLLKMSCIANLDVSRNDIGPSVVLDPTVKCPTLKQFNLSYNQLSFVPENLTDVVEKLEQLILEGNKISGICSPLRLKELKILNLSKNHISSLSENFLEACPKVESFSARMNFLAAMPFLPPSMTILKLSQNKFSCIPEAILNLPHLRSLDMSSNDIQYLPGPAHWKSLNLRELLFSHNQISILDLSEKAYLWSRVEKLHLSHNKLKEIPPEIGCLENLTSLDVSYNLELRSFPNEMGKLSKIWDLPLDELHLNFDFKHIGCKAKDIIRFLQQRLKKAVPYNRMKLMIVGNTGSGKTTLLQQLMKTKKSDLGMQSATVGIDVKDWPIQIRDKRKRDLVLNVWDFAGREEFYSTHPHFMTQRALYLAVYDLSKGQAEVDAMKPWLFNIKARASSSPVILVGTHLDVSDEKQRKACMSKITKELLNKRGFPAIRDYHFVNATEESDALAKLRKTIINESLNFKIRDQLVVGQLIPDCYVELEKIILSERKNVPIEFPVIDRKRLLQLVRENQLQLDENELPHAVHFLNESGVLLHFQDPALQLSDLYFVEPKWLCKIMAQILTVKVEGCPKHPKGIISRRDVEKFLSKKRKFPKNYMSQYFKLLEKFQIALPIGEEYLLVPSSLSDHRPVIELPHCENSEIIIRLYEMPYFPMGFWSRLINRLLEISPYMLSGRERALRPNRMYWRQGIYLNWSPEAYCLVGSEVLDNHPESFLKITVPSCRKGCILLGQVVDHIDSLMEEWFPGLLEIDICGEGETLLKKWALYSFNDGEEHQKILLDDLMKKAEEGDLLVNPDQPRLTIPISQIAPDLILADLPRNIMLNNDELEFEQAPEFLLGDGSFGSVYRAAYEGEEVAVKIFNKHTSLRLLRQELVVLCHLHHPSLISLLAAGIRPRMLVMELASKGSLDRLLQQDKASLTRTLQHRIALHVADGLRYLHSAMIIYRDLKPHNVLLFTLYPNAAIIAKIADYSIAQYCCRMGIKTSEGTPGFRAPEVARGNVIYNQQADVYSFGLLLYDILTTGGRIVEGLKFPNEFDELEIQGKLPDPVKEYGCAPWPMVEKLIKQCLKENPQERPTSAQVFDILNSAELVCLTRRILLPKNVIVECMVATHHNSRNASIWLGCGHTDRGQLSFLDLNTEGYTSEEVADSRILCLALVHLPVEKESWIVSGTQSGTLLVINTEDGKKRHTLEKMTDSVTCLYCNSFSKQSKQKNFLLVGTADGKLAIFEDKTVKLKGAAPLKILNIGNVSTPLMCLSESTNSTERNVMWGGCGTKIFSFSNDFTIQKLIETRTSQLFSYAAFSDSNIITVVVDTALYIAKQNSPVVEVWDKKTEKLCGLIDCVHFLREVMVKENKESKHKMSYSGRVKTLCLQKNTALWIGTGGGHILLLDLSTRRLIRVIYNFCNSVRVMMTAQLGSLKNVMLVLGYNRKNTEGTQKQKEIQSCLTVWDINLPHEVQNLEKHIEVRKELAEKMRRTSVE
Chain of Macrophage colony-stimulating factor 1 receptor (Homo sapiens) (P07333 whole entry): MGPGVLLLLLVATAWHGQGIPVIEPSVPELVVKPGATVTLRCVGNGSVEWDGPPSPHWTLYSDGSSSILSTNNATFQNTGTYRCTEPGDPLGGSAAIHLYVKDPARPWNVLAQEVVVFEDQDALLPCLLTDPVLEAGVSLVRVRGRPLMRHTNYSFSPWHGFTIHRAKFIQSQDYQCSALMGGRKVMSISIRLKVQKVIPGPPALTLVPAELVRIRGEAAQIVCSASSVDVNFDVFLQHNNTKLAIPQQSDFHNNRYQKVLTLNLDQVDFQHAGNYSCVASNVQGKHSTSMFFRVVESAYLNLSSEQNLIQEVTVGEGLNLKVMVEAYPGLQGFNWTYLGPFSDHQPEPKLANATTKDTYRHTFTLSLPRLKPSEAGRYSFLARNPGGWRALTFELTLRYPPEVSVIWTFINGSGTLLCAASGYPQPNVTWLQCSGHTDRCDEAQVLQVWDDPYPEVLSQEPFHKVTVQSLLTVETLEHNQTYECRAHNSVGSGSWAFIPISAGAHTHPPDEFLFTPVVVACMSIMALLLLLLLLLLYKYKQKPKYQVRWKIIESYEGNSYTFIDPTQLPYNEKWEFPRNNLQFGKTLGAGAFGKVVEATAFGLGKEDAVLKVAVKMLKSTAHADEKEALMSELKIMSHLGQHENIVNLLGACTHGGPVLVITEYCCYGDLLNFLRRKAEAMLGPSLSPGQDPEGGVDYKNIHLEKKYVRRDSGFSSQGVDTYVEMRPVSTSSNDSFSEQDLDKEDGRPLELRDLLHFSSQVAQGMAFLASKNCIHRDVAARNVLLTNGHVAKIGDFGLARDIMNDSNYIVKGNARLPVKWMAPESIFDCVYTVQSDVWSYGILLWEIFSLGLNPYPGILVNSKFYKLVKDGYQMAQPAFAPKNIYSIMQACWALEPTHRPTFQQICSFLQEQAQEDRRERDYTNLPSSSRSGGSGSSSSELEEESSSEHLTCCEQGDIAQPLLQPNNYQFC
Chain of D(3) dopamine receptor (Homo sapiens) (P35462 whole entry): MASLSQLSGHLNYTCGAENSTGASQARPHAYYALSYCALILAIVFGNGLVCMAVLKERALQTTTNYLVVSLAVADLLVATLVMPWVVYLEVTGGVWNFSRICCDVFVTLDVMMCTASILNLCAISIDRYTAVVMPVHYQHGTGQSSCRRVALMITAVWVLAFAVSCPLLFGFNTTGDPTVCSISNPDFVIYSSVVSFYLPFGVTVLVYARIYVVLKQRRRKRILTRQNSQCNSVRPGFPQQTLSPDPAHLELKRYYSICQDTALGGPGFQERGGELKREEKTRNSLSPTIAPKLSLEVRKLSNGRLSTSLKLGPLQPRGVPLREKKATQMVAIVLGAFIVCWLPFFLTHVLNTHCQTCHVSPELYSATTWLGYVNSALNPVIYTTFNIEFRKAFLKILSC

Row | SMILES | residual activity [1] [%] | residual activity [2] [%] | residual activity [3] [%] | activity at 20 µM [4] | residual activity [5] [%] | residual activity [6] [%] | residual activity [7] [%] | residual activity [8] [%] | residual activity [9] [%] | residual activity [10] [%]
1 | CN(C)C(=O)Cn1cc(-c2nc(C3(c4ccc(-c5cnc(N)nc5)cc4)CC3)no2)cn1 [BI 0153] | 100 | – | – | – | – | – | – | – | – | –
2 | CN(C)C(=O)Cn1cc(-c2nc([C@@](C)(c3ccc(-c4cnc(N)nc4)cc3)C3CC3)no2)cn1 [BI 665915] | – | 94 | 82 | 85% (not active) | 97 | 98 | 94 | 89 | 95 | 98
